Patent US6723754B2, “Use of COMT inhibitors as analgesics” (Orion Corporation, priority 2000, dated 2004)
Marks after values point to notes of the source that are not given here.

Tests used:
[1] = system: inflamed paw in rats; experiment: Modified Randall-Selitto test (yeast-inflamed hind paw pain threshold); format: in vivo; details: rat, one hour before measurement, % of control value
Procedure: (§1) There are several methods for testing analgesic drugs experimentally. […] The inflammation is induced in the rat hind paw by yeast suspension and the pain threshold of the paw is measured. […] In these tests, both the NSAIDs and opioid analgesics are known to be effective. The hot plate test in mice is a test in which only opioid analgesics are effective.
The effect on inflammatory pain was measured using a modified Randall-Selitto test. 0.1 ml of 20% Brewer's yeast suspension was injected subplantary to the right hind paw of rats under ether anaesthesia to elicit inflammation in the paw. After 3 hours the degree of hyperalgesia was determined with an analgesy-meter by applying a force of increasing magnitude to the inflamed paw with a cone-shaped teflon pusher. The force at which the animals begins to struggle was assumed to represent the pain threshold. The drugs were administered orally 5 ml/kg one hour before the measurement. The increase in pain threshold was calculated as a percentage of the control value.

[2] = system: acetic acid induced writhing in mice; experiment: Acetic acid-induced writhing in mice; format: in vivo; details: mouse
Procedure: as §1
Acetic acid induced writhing test is a widely used screening method for analgesic agents. […] Writing movements were elicited in mice by an i.p. injection of 1% acetic acid in the volume of 0.1 ml/10 g. The mice were placed in individual glass containers for observation. The number of writhes was counted during a period of 20 minutes and recorded every 5 minutes. The test compounds were given 5-60 minutes before the acetic acid.

[3] = system: formation of prostaglandins; details: Aho and Linden, Scand.J.Gastroenterol. 1992; cited from earlier work

| SMILES | Increase in pain threshold (%) ([1]; 10 mg/kg p.o.) | Increase in pain threshold (%) ([1]; 30 mg/kg p.o.) | Inhibition of writhing (%) ([2]; 3 mg/kg i.v.) | Inhibition of writhing (%) ([2]; 10 mg/kg i.v.) | Inhibition of writhing (%) ([2]; 100 mg/kg p.o.) | Increase in pain threshold (%) ([1]; 1 mg/kg p.o.) | Inhibition of writhing (%) ([2]; 1 mg/kg i.p.) | Inhibition of writhing (%) ([2]; 2 mg/kg p.o.) | Inhibition of writhing (%) ([2]; 6 mg/kg p.o.) | Increase in pain threshold (%) ([1]; 0.5 mg/kg p.o.) | Increase in pain threshold (%) ([1]; 3 mg/kg p.o.) | Inhibition of writhing (%) ([2]; 30 mg/kg i.p.) | Inhibition of writhing (%) ([2]; 50 mg/kg p.o.) | Inhibition of writhing (%) ([2]; 100 mg/kg i.p.) | Effect on formation of prostaglandins [3] |
| --- | --- | --- | --- | --- | --- | --- | --- | --- | --- | --- | --- | --- | --- | --- | --- |
| CCN(CC)C(=O)/C(C#N)=C/c1cc(O)c(O)c([N+](=O)[O-])c1 [Entacapone, (E)-2-cyano-3-(3,4-dihydroxy-5-nitrophenyl)-N,N-diethyl-2-propenamide] | 62% | 64% | 14 | 38* % | 24% |  |  |  |  |  |  |  |  |  |  |
| COc1ccc2c(c1)c(CC(=O)O)c(C)n2C(=O)c1ccc(Cl)cc1 [Indomethacin, indomethacin] |  |  |  |  |  | 54* % | 38* % | 18* % | 42** % |  |  |  |  |  |  |
| CC(=O)C(=Cc1cc(O)c(O)c([N+](=O)[O-])c1)C(C)=O [Nitecapone, 3-(3,4-dihydroxy-5-nitrophenyl)methylene-2,4-pentanedione] | 45* % |  |  |  | 21** % | 58* % |  |  |  | 13 | 46* % | 37* % | 15* % | 76* % | stimulate the formation of prostaglandins |
| O=[N+]([O-])c1cc(O)c(O)c([N+](=O)[O-])c1 [3,5-dinitrocatechol] |  | 65* % |  |  | 22** % | 49* % |  |  |  |  | 49* % |  | 36** % |  |  |
| CC(=O)c1cc(O)c(O)c([N+](=O)[O-])c1 [3′,4′-dihydroxy-5′-nitroacetophenone] | 68** % | 62* % |  |  | 43** % |  |  |  |  |  | 45% |  | 28** % |  |  |
